Measurements: publication PMC5224920, “Assessing the mechanism and therapeutic potential of modulators of the human Mediator complex-associated protein kinases” (eLife, 2016)

Tested on: 12 single or co-culture in vitro tissue models of primary cells
Experiment: Culture/co-culture cell model panel, extracellular biomarkers (DiscoveRx); for CCL2/MCP-1: reference of the scale not given here; for CXCL8/IL-8: reference of the scale not given here; for CXCL9/MIG: reference of the scale not given here; for M-CSF: reference of the scale not given here; for PBMC Cytotoxicity: reference of the scale not given here; for SRB: reference of the scale not given here; for sTNF-alpha: reference of the scale not given here
Assay type: cell-based, human
Conditions: for Secreted IgG / sIL-2 / sIL-6 / sIL-17A / sIL-17F / sTNF-alpha / B cell Proliferation / PBMC Cytotoxicity: BT; for CCL2/MCP-1 / CD54/ICAM-1 / CD106/VCAM-1 / CXCL8/IL-8 / CXCL9/MIG / CXCL10/IP-10 / CXCL11/I-TAC / Collagen I / Collagen III / EGFR / M-CSF / MMP-1 / PAI-I / Proliferation_72hr / SRB / TIMP-1 / TIMP-2: HDF3CGF stimulated fibroblasts

Cn1ncc2cc(-c3cnc(N)c(Cl)c3N3CCC4(CCNC4=O)CC3)ccc21 [CMPD 3]
Secreted IgG (1.00E0 nM): -0.074
sIL-2 (1.00E0 nM): 0.110
sIL-6 (1.00E0 nM): 0.008
sIL-17A (1.00E0 nM): 0.110
sIL-17F (1.00E0 nM): -0.037
sTNF-alpha (1.00E0 nM): 0.089
B cell Proliferation (1.00E1 nM): -0.011
PBMC Cytotoxicity (1.00E1 nM): -0.016
Secreted IgG (1.00E1 nM): 0.026
sIL-2 (1.00E1 nM): 0.017
sIL-6 (1.00E1 nM): -0.016
sIL-17A (1.00E1 nM): 0.095
sIL-17F (1.00E1 nM): -0.399
sTNF-alpha (1.00E1 nM): -0.021
B cell Proliferation (1.00E2 nM): -0.056
PBMC Cytotoxicity (1.00E2 nM): -0.027
Secreted IgG (1.00E2 nM): -0.165
sIL-2 (1.00E2 nM): 0.084
sIL-6 (1.00E2 nM): 0.046
sIL-17A (1.00E2 nM): 0.184
sIL-17F (1.00E2 nM): -0.384
sTNF-alpha (1.00E2 nM): 0.022
B cell Proliferation (1.00E3 nM): -0.058
PBMC Cytotoxicity (1.00E3 nM): -0.050
Secreted IgG (1.00E3 nM): -0.370
sIL-2 (1.00E3 nM): -0.083
sIL-6 (1.00E3 nM): -0.147
sIL-17A (1.00E3 nM): 0.263
sIL-17F (1.00E3 nM): -0.522
sTNF-alpha (1.00E3 nM): -0.114
B cell Proliferation (1.00E4 nM): -0.233
PBMC Cytotoxicity (1.00E4 nM): -0.092
Secreted IgG (1.00E4 nM): -0.611
sIL-2 (1.00E4 nM): -0.213
sIL-6 (1.00E4 nM): -0.493
sIL-17A (1.00E4 nM): 0.164
sIL-17F (1.00E4 nM): -0.874
sTNF-alpha (1.00E4 nM): -0.249
CCL2/MCP-1 (1.00E0 nM): -0.000698
CD54/ICAM-1 (1.00E0 nM): 0.022
CD106/VCAM-1 (1.00E0 nM): -0.007
CXCL8/IL-8 (1.00E0 nM): -0.00379
CXCL9/MIG (1.00E0 nM): 0.00441
CXCL10/IP-10 (1.00E0 nM): 0.006
CXCL11/I-TAC (1.00E0 nM): 0.016
Collagen I (1.00E0 nM): 0.078
Collagen III (1.00E0 nM): 0.045
EGFR (1.00E0 nM): 0.070
M-CSF (1.00E0 nM): 0.015
MMP-1 (1.00E0 nM): 0.046
PAI-I (1.00E0 nM): 0.072
Proliferation_72hr (1.00E0 nM): -0.019
SRB (1.00E0 nM): -0.009
TIMP-1 (1.00E0 nM): 0.031
TIMP-2 (1.00E0 nM): 0.091
CCL2/MCP-1 (1.00E1 nM): -0.016
CD54/ICAM-1 (1.00E1 nM): -0.00318
CD106/VCAM-1 (1.00E1 nM): 0.013
CXCL8/IL-8 (1.00E1 nM): -0.026
CXCL9/MIG (1.00E1 nM): -0.00175
CXCL10/IP-10 (1.00E1 nM): 0.035
CXCL11/I-TAC (1.00E1 nM): -0.00346
Collagen I (1.00E1 nM): 0.095
Collagen III (1.00E1 nM): 0.043
EGFR (1.00E1 nM): -0.010
M-CSF (1.00E1 nM): -0.053
MMP-1 (1.00E1 nM): 0.052
PAI-I (1.00E1 nM): -0.000592
Proliferation_72hr (1.00E1 nM): -0.139
SRB (1.00E1 nM): -0.015
TIMP-1 (1.00E1 nM): -0.019
TIMP-2 (1.00E1 nM): 0.138
CCL2/MCP-1 (1.00E2 nM): -0.095
CD54/ICAM-1 (1.00E2 nM): -0.046
CD106/VCAM-1 (1.00E2 nM): 0.00848
CXCL8/IL-8 (1.00E2 nM): -0.030
CXCL9/MIG (1.00E2 nM): -0.053
CXCL10/IP-10 (1.00E2 nM): 0.038
CXCL11/I-TAC (1.00E2 nM): -0.019
Collagen I (1.00E2 nM): 0.072
Collagen III (1.00E2 nM): 0.069
EGFR (1.00E2 nM): -0.024
M-CSF (1.00E2 nM): -0.078
MMP-1 (1.00E2 nM): 0.030
PAI-I (1.00E2 nM): -0.00555
Proliferation_72hr (1.00E2 nM): -0.249
SRB (1.00E2 nM): -0.018
TIMP-1 (1.00E2 nM): -0.057
TIMP-2 (1.00E2 nM): 0.140
CCL2/MCP-1 (1.00E3 nM): -0.140
CD54/ICAM-1 (1.00E3 nM): -0.051
CD106/VCAM-1 (1.00E3 nM): 0.034
CXCL8/IL-8 (1.00E3 nM): -0.084
CXCL9/MIG (1.00E3 nM): -0.075
CXCL10/IP-10 (1.00E3 nM): 0.033
CXCL11/I-TAC (1.00E3 nM): -0.016
Collagen I (1.00E3 nM): 0.079
Collagen III (1.00E3 nM): 0.097
